Structures are written as SMILES.

The results in this text go back to ChEMBL document CHEMBL4033617, “Stereo-controlled synthesis of functionalized tetrahydropyridines based on the cyanomethylation of 1,6-dihydropyridines and generation of anti-hepatitis C virus agents” (Bioorg Med Chem, 2017).

This test deals with Hepatitis C virus. The experiment in a line: Antiviral activity against Hepatitis C virus infected in human Huh7.5.1 cells after 72 hrs by focus formation assay. The conditions noted are these: Huh-7.5.1, 72 h. In kind it is functional, cell-based, Hepacivirus hominis.

With `C=CC[C@]1(C(=O)c2ccccc2)C=CCN(Cc2ccccc2)[C@H]1CC#N`, it took 15.4 µM to reach half-maximal inhibition (IC50).

`N#CC[C@H]1C(C(=O)c2ccccc2)=CC=CN1Cc1ccccc1` yielded an IC50 of 10.8 µM.
